Consider seven molecules from US20220281802A1, “COMPOUNDS, PHARMACEUTICAL COMPOSITIONS, AND METHODS OF THEIR USE IN THE INHIBITION OF INTERACTION BETWEEN IL18 AND IL18R” (Beth Israel Deaconess Medical Center, Inc., priority 2019, published 2022).

Read-outs that look alike come from different tables or passages of the source.

Data set [1] relates to human saphenous vein segments. In words: Cytokine expression in human saphenous vein ex vivo (LPS challenge, multiplex ELISA). The following applies: LPS 100 ng/ml + compound 10 μM, 18 hours, culture supernatant. Format: cell-based. An excerpt: Example 2. Cytokine Expression in Human Saphenous Vein Ex Vivo
In this example, a cytokine storm/inflammation common to many vascular conditions has been modeled by challenging human saphenous vein segments with lipopolysaccharide (LPS). Discarded human saphenous vein samples were collected from patients undergoing peripheral bypass grafting.
Samples were subjected to Human (h) TheRPA (Therapeutic Responses Predictor Assay) which is based on ex-vivo treatment of biopsies (explant cultures). The tissues were transferred to the lab within 30 min of their harvesting and cultured in DMEM+10% FBS+1% antibiotic/antimycotic (DMEM plus glucose, glutamine, sodium pyruvate: Gibco 11995-065; Heat Inactivated FBS: Gibco 16140-089; Antibiotic-Antimycotic: Gibco 15240-096) in the presence of vehicle, LPS (100 ng/ml) or LPS (100 ng/ml)+compound 1/compound 10/compound 15 (10 μM). After 18 hours, culture supernatants were collected and kept at −80° C. Cytokine levels in cell culture supernatant were measured by multiplex ELISA (Milliplex map human cytokine/chemokine magnetic bead kit from Millipore).
For orientation: In an ELISA, binding on a coated surface is turned into a signal by an enzyme label.

In data set [2] the test system is IL18. In words: HEK-Blue IL18 cell reporter assay (SEAP). Format: cell-based. The following applies: Phase I; HEK-Blue IL18 cells, co-treated with recombinant human IL18 15 pM-100 pM, 18 hours; FIGS. 1A-1D. The method, then: HEK-Blue IL18 Cell Reporter Assay
HEK-Blue IL18 Cells (Invivogen California, USA), are a derivative of HEK293 cells that have been stably transfected with IL18Rα/IL18RAP genes and a SEAP reporter gene that is expressed and secreted in specific response to IL18. Cells were grown in […] tissue culture flasks with DMEM culture medium containing 4.5 g/L glucose, 10% (v/v) heat-inactivated fetal bovine serum, 50 μ/mL penicillin, 50 μg/mL streptomycin, 100 μg/mL Normocin and 2 mM L-glutamine at 37° C. in 5% CO2.
Stock concentration of IL18 was 750 μM stored in Tris-HCl buffer at −80° C. For treatment use, compounds were diluted in sterile PBS to 100 times the intended treatment concentration and administered into wells containing 198 μl media at volumes of 2 μl. Total DMSO contents for all vehicles was less than 0.02% prior to treatment, and less than 0.0002% within wells following treatment.
HEK-Blue IL18 cells were transferred from flasks and seeded at 40-50% confluency on 96-well culture plates 6 hours prior to treatment.
Phase I: Cells were treated with compounds at concentrations of […], 7.5 pM, and 1.5 pM, with three replicate wells for each concentration, and six replicate wells with no compound treatment (NT). All wells were then immediately co-treated with recombinant human IL18 at one concentration between 15 pM-100 pM. Following treatments, cells were incubated at 37° C. in 5% CO2 for 18 hours. Cell confluency typically reached 70-80% (˜80,000-100,000 cells per well) by this point, 24 hours after seeding.
To detect SEAP activity, 20 μL supernatant from each well was transferred and mixed with 180 μl alkaline phosphatase detection medium (QUANTi-Blue, InvivoGen, California, USA), in a separate 96-well plate and incubated for 3 hours at room temperature. Supernatant SEAP activity was measured by reading the optical density (OD) at 640 nm using a spectrophotometer. OD values were standardized to NT mean=1.
Statistical analysis was performed GraphPad Prism (California, USA) software. One-Way analysis of variance (ANOVA) with Dunnett's post-hoc analysis was used to determine significant variation between treatment and control (NT) groups treated only with IL18.
A general note: A reporter such as luciferase makes a cellular process visible.

For data set [3], the system named is Primary human saphenous vein smooth muscle (SMC). Put plainly: Alamar Blue assay for cell toxicity and proliferation, smooth muscle cells. The following applies: 10 nM-10 μM, up to 72 hours; FIGS. 3D-3F, 4A, 4B. On the technique in general: Alamar Blue is a resazurin reagent that responds to reducing activity.
Experimental: Primary human saphenous vein smooth muscle (SMC) and endothelial cells (EC) were left untreated or treated with inhibitor compounds (10 nM-10 μM) for a period of 3-4 days. Cell proliferation was measured using our previously published Alamar Blue Assay (Monahan et al., FASEB J., 23:557-564, 2009; Yoshida et al., J. Am. Coll. Surg. 213:668-67, 2011).
Data set [4] deals with T1, IL18 (Homo sapiens, UniProt Q14116).
T1 sequence (Q14116 37-193): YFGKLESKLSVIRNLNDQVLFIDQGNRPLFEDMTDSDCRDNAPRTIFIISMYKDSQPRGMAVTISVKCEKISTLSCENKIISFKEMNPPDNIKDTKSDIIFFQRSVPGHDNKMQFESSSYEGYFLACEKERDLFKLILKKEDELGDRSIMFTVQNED
In words: Microscale Thermophoresis (MST) binding. More on the design: Recombinant IL18 was fluorescently labelled using the lysine reactive Pico RED NT647 dye. How it is done:
Microscale Thermophoresis
Recombinant IL18 was fluorescently labelled using the lysine reactive Pico RED NT647 dye from NanoTemper Technologies and stored in a PBS buffer containing 0.05% TWEEN (Buffer A). Stock concentration of labelled IL18 was […]. Working concentrations of IL18 were diluted in Buffer A to 10, 40, or 50 nM. Except for the positive control, IL18BP, stock concentration for all compounds, or ligands, was 10-25 mM in 100% DMSO. Ligands were diluted in Buffer A to working concentrations of 50-500 μM. Containing 0.8-2% DMSO. Stock concentration of IL8BP, was 50 μM, stored in 20 mM Tris-HI buffer (pH 8.0) containing 0.4 M Urea and 10% glycerol (Buffer B). Prior to MST experiments being performed 16 preparations of two-fold serial dilutions of ligand in uniform buffer, starting with the working Uigand concentration, were incubated with equal volumes of a fixed concentration of labelled IL8. After 30 minutes incubation at room temperature, 16 Monolith NT. 15 standard capillaries were loaded with 10 μl volumes of each of the ligand/IL18 preparations. Tests described in Results were run at 3700.
Experiments were performed on a Monolith NT.115Pico machine (NanoTemper Technologies GmbH, Germany). Data quality and analysis and graphic rendering were performed using MO.Affinity Analysis v2.3 software from NanoTemper technologies. Evaluation strategy for all analyses was standardized to measure relative change of fluorescence (FNorm %) over a 2.5 second of laser induced temperature shift per capillary. Statistical analysis was performed using NanoTemper's MOControl software. The results of this assay for compounds 1, 10, and 15 are shown in FIGS. 7, 8, 9A, 9B, and […] and Table 3 describes the MST assay conditions.

The subject of data set [5] is IFN-γ gene expression in NK92 cells. In words: IFN-γ gene expression induction in NK-92 cells (qRT-PCR). Format: cell-based. Conditions: 24 hours. How it is done: IFN-γ Gene Expression Induction in NK-92 Cells
IFN-γ gene and protein expression induction is a standard to measure IL-18 activity in NK92 cells (Kalina et al., J. Immunol. 165:1307-1313, 2000).
NK92 cells were treated with 1 μM concentration of compounds 1, 10, or […]. […] 24 hours after treatment, total RNA was harvested and qRT-PCR was conducted using a previously published protocols (Raof et al., BMC Genomics, 17-20, 2016; Monahan et al., FASEB J., 23:557-564, 2009) to measure the gene expression of IFN-γ.

The test system is the same in data set [6]. Conditions: Kalina et al., J. Immunol. 2000; positive control; cited from earlier work.
Data set [7] relates to Primary human saphenous vein endothelial cells (EC). In words: Alamar Blue assay for cell toxicity and proliferation, endothelial cells. Format: cell-based. The following applies: 10 nM-10 μM, up to 76 hours; FIGS. 3A-3C. From the text: Alamar Blue Assay for Cell Toxicity and Proliferation
Data set [8] deals with T1, IL18. The following applies: background statement; read-out: affinity for hIL18; cited from earlier work.
[9] abbreviates: labelled IL18, 37.0° C., n 2, Table 3.
[10] abbreviates: FIG. 6, compound 1 μM, no treatment 1.33±0.85.
[11] abbreviates: FIG. 5, compound 1 μM, no treatment 1.06±0.38.

As for `Cc1ccc(Cc2ccc(C)c(N)c2)cc1N` [Compound 5], in data set [1], the IL-6 expression entry is “significantly inhibited”, the IL-8 expression result is “significantly inhibited” and the TNF expression result is recorded as “significantly inhibited”.
Consider `O=C1c2nn[nH]c2C(=O)c2nn[nH]c21` [Compound 10], for which, in data set [2], the “IL-18 activity (SEAP reporter)” value was “significantly reduce IL-18 activity”. Also, in data set [1], the IL-6 expression entry was “significantly inhibited”, the IL-8 expression entry is given as “significantly inhibited” and the TNF expression result is “significantly inhibited”. Besides, in data set [3], the “toxicity in SMC (Alamar Blue)” value is listed as “no toxicity”. Further, in data set [4] (FIGS. 9A-9C), the Kd came to 2.27 nM. Moreover, the Kd in data set [4] (setting [9]) amounted to 2.27 nM.
`Nc1cccc(Cc2cccc(N)c2)c1` [Compound 1]: the “IL-18 activity (SEAP reporter)” value in data set [2] was “significantly reduce IL-18 activity”. The same molecule displayed an IFN-γ expression in data set [5] (setting [10]) of 0.04±0.02. For the same molecule, in data set [1], the IL-6 expression result is listed as “significantly inhibited”, the IL-8 expression entry is “significantly inhibited” and the TNF expression result is “significantly inhibited”. Further, the Kd in data set [4] (FIGS. 9A-9C) turned out to be 60.6 nM. Also, in data set [4] (setting [9]), the Kd came out at 60.6 nM.
For the molecule `C[S+]([O-])c1ccc(-c2nc(-c3ccc(F)cc3)c(-c3ccncc3)[nH]2)cc1` (stereo not drawn) [Compound 1V], the “IFN-γ expression in NK92 cells (literature statement)” value in data set [6] is listed as “known inhibitor of IFN-γ expression in NK92 cells”.
Consider `CC(C)c1ccc(NC(=N)NC(=N)N)cc1` [Compound 15], for which, in data set [2], the “IL-18 activity (SEAP reporter)” value is reported as “significantly reduce IL-18 activity”. In addition, in data set [7], the “toxicity in EC (Alamar Blue)” value is given as “no toxicity”. The same molecule registered an IFN-γ expression in data set [5] (setting [11]) of 0.99±0.38. Also, the “toxicity in SMC (Alamar Blue)” value in data set [3] is listed as “no toxicity”. In addition, the Kd is 5600 nM in data set [4] (FIG. 9C) and 5640 nM in data set [4] (setting [9]).
On to “IL-18: Interleukin-18, pro-inflammatory cytokine used as stimulus of IFN-γ expression”, for which the IFN-γ expression is 5.52±3.43 in data set [5] (setting [11]) and 7.9±7.23 in data set [5] (setting [10]).

B1: IL18BP: Interleukin-18 Binding Protein, naturally occurring IL18 antagonist, soluble protein with a single Ig domain; positive control (protein, UniProt O95998 31-194, looked up)
Interleukin-18-binding protein: TPVSQTTTAATASVRSTKDPCPSQPPVFPAAKQCPALEVTWPEVEVPLNGTLSLSCVACSRFPNFSILYWLGNGSFIEHLPGRLWEGSTSRERGSTGTQLCKALVLEQLTPALHSTNFSCVLVDPEQVVQRHVVLAQLWAGLRATLPPTQEALPSSHSSPQQQG
Take B1: the “IL-18 activity (SEAP reporter)” value in data set [2] is listed as “significantly reduce IL-18 activity”. Also, the Kd in data set [8] was 0.4 nM; in data set [4] (FIGS. 9A-9C) it was 1.85 nM; in data set [4] (setting [9]), 1.85 nM.
